Paper PMC8962522, “Direct interaction of TrkA/CD44v3 is essential for NGF-promoted aggressiveness of breast cancer cells” (Journal of Experimental & Clinical Cancer Research : CR, 2022)

Tested on: TrkA
Experiment: nanoDSF peptide binding to TrkA
Conditions: nanoscale differential scanning fluorimetry, Supplementary Fig. 6A & B
Method: To block the TrkA-CD44v3 association, 4 mimetic peptides of CD44v3 were designed corresponding to zone 1 [(K) STSSNTISAG], zone 2 (WEPNEENEDE), zone 3 (RDRHLSFSGSG) and zone 4 (IDDDEDFISST) (Fig. 2F & G). The binding capacities of the CD44v3 mimetic peptides to TrkA were then measured by MST (Fig. 2H). […] To confirm mimetic peptide 4 binding, we assessed its ability to bind TrkA using nanoscale differential scanning fluorimetry (nanoDSF; Supplementary Fig. 6A & B).
Supplementary file 13046_2022_2314_MOESM3_ESM.pdf: Additional file 3: Supplementary Figure 1. Validation of the ectopic expression of CD44 and/or TrkA in COS-7 cells. The expression of all CD44 isoforms (A), CD44 variant 3 (B), CD44 variant 6 (C) and TrkA ([…]; D) was evaluated by RT–qPCR (normalized using PUM-1). No expression of CD44, CD44 variants [3 or 6] or TrkA was detected in COS-7 cells (A-D) compared with that in cells transfected with the expression plasmid carrying each protein. […] Quantification of the PLA results was performed using ImageJ software (30 randomly chosen fields per condition of three different experiments). […] CD44v3 and CD44v6 levels at the plasma membrane were assessed by flow cytometry (A-D). The plasma membrane and total TrkA and CD44v3 levels were also quantified by confocal microscopy (E-H). […] The CD44v3/NGF interaction was evaluated using microscale thermophoresis (MST). […]

binding to TrkA by nanoDSF (in words): bound TrkA
binding to TrkA by nanoDSF (in words) (listed as P4): binds to TrkA
Sequence: IDDDEDFISST [Peptide 4, mimetic peptide 4 (…) corresponding to the C-terminal region of CD44v3]
